What was measured:
[1] = test system: recombinant NL4-3 virus; experiment: HIV cell culture assay (antiviral activity, luciferase readout in MT-2 cells); format: cell-based; settings: Human immunodeficiency virus 1, NL43, MT2
Experimental: HIV cell culture assay—MT-2 cells, 293T cells and the proviral DNA clone of NL4-3 virus were obtained from the […] AIDS Research and Reference Reagent Program. MT-2 cells were propagated in RPMI 1640 media supplemented with 10% heat inactivated fetal bovine serum (FBS), […] penicillin G and up to 100 units/mL streptomycin. The 293T cells were propagated in DMEM media supplemented with 10% heat inactivated FBS, […] penicillin G and […] streptomycin. A recombinant NL4-3 proviral clone, in which a section of the nef gene was replaced with the Renilla luciferase gene, was used to make the reference virus used in these studies. The recombinant virus was prepared through transfection of the recombinant NL4-3 proviral clone into 293T cells using Transit-293 Transfection Reagent from Mirus Bio LLC (Madison, Wis.). Supernatent was harvested after 2-3 days and the amount of virus present was titered in MT-2 cells using luciferase enzyme activity as a marker by measuring luciferase enzyme activity. Luciferase was quantitated using the EnduRen Live Cell Substrate from Promega (Madison, Wis.). Antiviral activities of compounds toward the recombinant virus were quantified by measuring luciferase activity in MT-2 cells infected for 4-5 days with the recombinant virus in the presence of serial dilutions of the compound.
The 50% effective concentration (EC50) was calculated by using the exponential form of the median effect equation where (Fa)=1/[1+(ED50/drug conc.)m] (Johnson V A, Byington R T. Infectivity Assay. In Techniques in HIV Research. ed. Aldovini A, Walker B D. 71-76. New York: Stockton Press. 1990). The 50% inhibitory concentration (EC50) was calculated by using the exponential form of the median effect equation where percent inhibition=1/[1+(EC50/drug concentration)m], where m is a parameter that reflects the slope of the concentration-response curve.

[2] = Compound cytotoxicity, XTT-based colorimetric assay; format: cell-based; settings: human; uninfected MT2 cells, day 4, XTT; read-out: CC50
Experimental: Compound cytotoxicity and the corresponding CC50 values were determined using the same protocol as described in the antiviral assay except that uninfected cells were used. Cytotoxicity was assessed on day 4 in uninfected MT2 cells by using a XTT (2,3-bis[2-Methoxy-4-nitro-5-sulfophenyl]-2H-tetrazolium-5-carboxyanilide inner salt)-based colorimetric assay (Sigma-Aldrich, St Louis, Mo.).

Row | Structure (SMILES) | EC50 [1] | CC50 at 4 days [2]
1 | C[C@@H]1CN(c2ccc3c(=O)n(-c4ccc(Cl)c5c(NS(C)(=O)=O)nn(CC(F)F)c45)c([C@H](Cc4cc(F)cc(F)c4)NC(=O)Cc4cn(C5CC5)c5ccccc45)nc3c2)C[C@H](C)O1 [Example 52, N—((S)-1-((3P)-3-(4-chloro-1-(2,2-difluoroethyl)-3-(methylsulfonamido)-1H-indazol-7-yl)-7-((2S,6R)-2,6-dimethylmorpholino)-4-oxo-3,4-dihydroquinazolin-2-yl)-2-(3,5-difluorophenyl)ethyl)-2-(1-cyclopropyl-1H-indol-3-yl)acetamide] | 1.1 nM | > 500 nM
2 | Cn1nc(NS(C)(=O)=O)c2c(Cl)ccc(-n3c([C@H](Cc4cc(F)cc(F)c4)NC(=O)Cn4nc(C(F)F)c5c4C(F)(F)[C@@H]4C[C@H]54)nc4cc(N5CCC(C)(C)CC5)ccc4c3=O)c21 (atropisomer, axis not shown; (P)) [Example 1, N—((S)-1-((3P)-3-(4-chloro-1-methyl-3-(methylsulfonamido)-1H-indazol-7-yl)-7-(4,4-dimethylpiperidin-1-yl)-4-oxo-3,4-dihydroquinazolin-2-yl)-2-(3,5-difluorophenyl)ethyl)-2-((3bS,4aR)-3-(difluoromethyl)-5,5-difluoro-3b,4,4a,5-tetrahydro-1H-cyclopropa[3,4]cyclopenta[1,2-c]pyrazol-1-yl)acetamide] | 0.796 nM | > 500 nM
3 | C[C@@H]1CN(c2ccc3c(=O)n(-c4ccc(Cl)c5c(NS(C)(=O)=O)nn(CC(F)F)c45)c([C@H](Cc4cc(F)cc(F)c4)NC(=O)Cn4ccc(C5CCC5)n4)nc3c2)C[C@H](C)O1 (atropisomer, axis not shown; (P)) [Example 50, N—((S)-1-((3P)-3-(4-chloro-1-(2,2-difluoroethyl)-3-(methylsulfonamido)-1H-indazol-7-yl)-7-((2S,6R)-2,6-dimethylmorpholino)-4-oxo-3,4-dihydroquinazolin-2-yl)-2-(3,5-difluorophenyl)ethyl)-2-(3-cyclobutyl-1H-pyrazol-1-yl)acetamide] | 0.91 nM | > 500 nM
4 | Cn1nc(NS(C)(=O)=O)c2c(Cl)ccc(-n3c([C@H](Cc4cc(F)cc(F)c4)NC(=O)Cn4nc(C(F)F)c5c4C(F)(F)[C@@H]4C[C@H]54)nc4cc(N5CCC6(CCC6)CC5)ccc4c3=O)c21 (atropisomer, axis not shown; (P)) [Example 34, N—((S)-1-((3P)-3-(4-chloro-1-methyl-3-(methylsulfonamido)-1H-indazol-7-yl)-4-oxo-7-(7-azaspiro[3.5]nonan-7-yl)-3,4-dihydroquinazolin-2-yl)-2-(3,5-difluorophenyl)ethyl)-2-((3bS,4aR)-3-(difluoromethyl)-5,5-difluoro-3b,4,4a,5-tetrahydro-1H-cyclopropa[3,4]cyclopenta[1,2-c]pyrazol-1-yl)acetamide] | 2.81 nM | > 1000 nM
5 | Cc1cc(C(F)F)nn1C(C)C(=O)N[C@@H](Cc1cc(F)cc(F)c1)c1nc2cc(N3C[C@@H](C)O[C@@H](C)C3)ccc2c(=O)n1-c1ccc(Cl)c2c(NS(C)(=O)=O)nn(CC(F)F)c12 (stereo partly drawn) [Example 51, N—((S)-1-((3P)-3-(4-chloro-1-(2,2-difluoroethyl)-3-(methylsulfonamido)-1H-indazol-7-yl)-7-((2S,6R)-2,6-dimethylmorpholino)-4-oxo-3,4-dihydroquinazolin-2-yl)-2-(3,5-difluorophenyl)ethyl)-2-(3-(difluoromethyl)-5-methyl-1H-pyrazol-1-yl)propanamide] | 1.9 nM | > 500 nM
6 | Cn1nc(NS(C)(=O)=O)c2c(Cl)ccc(-n3c([C@H](Cc4cc(F)cc(F)c4)NC(=O)Cn4nc(C(F)F)c5c4C(F)(F)[C@@H]4C[C@H]54)nc4cc(N5CC(C)(C)OC(C)(C)C5)ccc4c3=O)c21 (atropisomer, axis not shown; (P)) [Example 57, N—((S)-1-((3P)-3-(4-chloro-1-methyl-3-(methylsulfonamido)-1H-indazol-7-yl)-4-oxo-7-(2,2,6,6-tetramethylmorpholino)-3,4-dihydroquinazolin-2-yl)-2-(3,5-difluorophenyl)ethyl)-2-((3bS,4aR)-3-(difluoromethyl)-5,5-difluoro-3b,4,4a,5-tetrahydro-1H-cyclopropa[3,4]cyclopenta[1,2-c]pyrazol-1-yl)acetamide] | 0.077 nM | > 500 nM
7 | C[C@@H]1CN(c2ccc3c(=O)n(-c4ccc(Cl)c5c(NS(C)(=O)=O)nn(CC(F)F)c45)c([C@H](Cc4cc(F)cc(F)c4)NC(=O)Cn4nc(C5CC5)cc4C(F)F)nc3c2)C[C@H](C)O1 (atropisomer, axis not shown; (P)) [Example 47, N—((S)-1-((3P)-3-(4-chloro-1-(2,2-difluoroethyl)-3-(methylsulfonamido)-1H-indazol-7-yl)-7-((2S,6R)-2,6-dimethylmorpholino)-4-oxo-3,4-dihydroquinazolin-2-yl)-2-(3,5-difluorophenyl)ethyl)-2-(3-cyclopropyl-5-(difluoromethyl)-1H-pyrazol-1-yl)acetamide] | 0.96 nM | > 500 nM
8 | Cn1nc(NS(C)(=O)=O)c2c(Cl)ccc(-n3c([C@H](Cc4cc(F)cc(F)c4)NC(=O)Cn4nc(C(F)F)c5c4C(F)(F)[C@@H]4C[C@H]54)nc4cc(N5CCOCC5)ccc4c3=O)c21 (atropisomer, axis not shown; (P)) [Example 12, N—((S)-1-((3P)-3-(4-chloro-1-methyl-3-(methylsulfonamido)-1H-indazol-7-yl)-7-morpholino-4-oxo-3,4-dihydroquinazolin-2-yl)-2-(3,5-difluorophenyl)ethyl)-2-((3bS,4aR)-3-(difluoromethyl)-5,5-difluoro-3b,4,4a,5-tetrahydro-1H-cyclopropa[3,4]cyclopenta[1,2-c]pyrazol-1-yl)acetamide] | 0.035 nM | > 1000 nM
9 | Cn1nc(NS(C)(=O)=O)c2c(Cl)ccc(-n3c([C@H](Cc4cc(F)cc(F)c4)NC(=O)Cn4nc(C(F)F)c5c4C(F)(F)[C@@H]4C[C@H]54)nc4cc(N5CCC[C@H]5CO)ccc4c3=O)c21 (atropisomer, axis not shown; (P)) [Example 35, N—((S)-1-((3P)-3-(4-chloro-1-methyl-3-(methylsulfonamido)-1H-indazol-7-yl)-7-((S)-2-(hydroxymethyl)pyrrolidin-1-yl)-4-oxo-3,4-dihydroquinazolin-2-yl)-2-(3,5-difluorophenyl)ethyl)-2-((3bS,4aR)-3-(difluoromethyl)-5,5-difluoro-3b,4,4a,5-tetrahydro-1H-cyclopropa[3,4]cyclopenta[1,2-c]pyrazol-1-yl)acetamide] | 0.272 nM | > 10000 nM
10 | Cn1nc(NS(C)(=O)=O)c2c(Cl)ccc(-n3c([C@H](Cc4cc(F)cc(F)c4)NC(=O)Cn4nc(C(F)F)c5c4C(F)(F)[C@@H]4C[C@H]54)nc4cc(NCC(F)(F)F)ccc4c3=O)c21 (atropisomer, axis not shown; (P)) [Example 42, N—((S)-1-((3P)-3-(4-chloro-1-methyl-3-(methylsulfonamido)-1H-indazol-7-yl)-4-oxo-7-((2,2,2-trifluoroethyl)amino)-3,4-dihydroquinazolin-2-yl)-2-(3,5-difluorophenyl)ethyl)-2-((3bS,4aR)-3-(difluoromethyl)-5,5-difluoro-3b,4,4a,5-tetrahydro-1H-cyclopropa[3,4]cyclopenta[1,2-c]pyrazol-1-yl)acetamide] | 0.11 nM | > 1000 nM
11 | CN1CCN(c2ccc3c(=O)n(-c4ccc(Cl)c5c(NS(C)(=O)=O)nn(C)c45)c([C@H](Cc4cc(F)cc(F)c4)NC(=O)Cn4nc(C(F)F)c5c4C(F)(F)[C@@H]4C[C@H]54)nc3c2)CC1 (atropisomer, axis not shown; (P)) [Example 11, N—((S)-1-((3P)-3-(4-chloro-1-methyl-3-(methylsulfonamido)-1H-indazol-7-yl)-7-(4-methylpiperazin-1-yl)-4-oxo-3,4-dihydroquinazolin-2-yl)-2-(3,5-difluorophenyl)ethyl)-2-((3bS,4aR)-3-(difluoromethyl)-5,5-difluoro-3b,4,4a,5-tetrahydro-1H-cyclopropa[3,4]cyclopenta[1,2-c]pyrazol-1-yl)acetamide] | 0.117 nM | > 10000 nM

From patent US20210395262A1, “INHIBITORS OF HUMAN IMMUNODEFICIENCY VIRUS REPLICATION” (ViiV HEALTHCARE UK (NO.5) LIMITED, priority 2018, published 2021)
